Experimental data from patent US8586551B2, “18-membered macrocycles and analogs thereof” (Optimer Pharmaceuticals, Inc., priority 2005, dated 2013).

Experiments:
C. difficile = test: Post-antibiotic effect (PAE) in C. difficile; format: cell-based; conditions: at 4× the MIC, clinical isolate LC3
Experimental: The term “PAE” or “post-antibiotic effect” refers to a well-established pharmacodynamic parameter that reflects the persistent suppression of bacterial growth following antibiotic exposure.
Vancomycin and rifampin were tested additionally versus LC3.
Because of the long duration of this effect, an exact PAE was not calculated.

[1] = tested on: C. difficile clinical isolates; test: MIC via agar dilution versus 110 clinical isolates of C. difficile; format: cell-based; conditions: 110 clinical isolates

SMILES	PAE (C. difficile)	MIC range [1] [µg/mL]
CN[C@H](CC(C)C)C(=O)N[C@H]1C(=O)N[C@@H](CC(N)=O)C(=O)N[C@H]2C(=O)N[C@H]3C(=O)N[C@H](C(=O)N[C@H](C(=O)O)c4cc(O)cc(O)c4-c4cc3ccc4O)[C@H](O)c3ccc(c(Cl)c3)Oc3cc2cc(c3O[C@@H]2O[C@H](CO)[C@@H](O)[C@H](O)[C@H]2O[C@H]2C[C@](C)(N)[C@H](O)[C@H](C)O2)Oc2ccc(cc2Cl)[C@H]1O [Vancomycin, reference compound]	less than an hour	0.06 to 4
Cc1ncc([N+](=O)[O-])n1CCO [Metronidazole, reference compound]		0.025 to 0.5
